ChEMBL document CHEMBL5214890 (Eur J Med Chem, 2021)
Where a SMILES comes first, the peptide text is derived from it. [ ]: non-standard residue; d: D form. ξ: configuration not given here. Thr(3ξ) = CC(O)[C@H](N)C(=O)O

How the values were obtained:
Assay type in all cases: functional, cell-based
[1] = target: Glucagon receptor (Homo sapiens, UniProt P47871); test: Agonist activity at human GCGR expressed in HEK293 cells incubated for 30 mins and assessed as increase in cAMP accumulation measured by HTRF assay
[2] = target: T1, Glucagon-like peptide 1 receptor (Homo sapiens, UniProt P43220); test: Agonist activity at human GLP-1R expressed in HEK293 cells incubated for 30 mins and assessed as increase in cAMP accumulation measured by HTRF assay relative to control; set-up: concentration or dose not given beside the values
[3] = target: T1, Glucagon-like peptide 1 receptor; test: Agonist activity at human GLP-1R expressed in HEK293 cells incubated for 30 mins and assessed as increase in cAMP accumulation measured by HTRF assay

Glucagon receptor, sequence (P47871 whole entry): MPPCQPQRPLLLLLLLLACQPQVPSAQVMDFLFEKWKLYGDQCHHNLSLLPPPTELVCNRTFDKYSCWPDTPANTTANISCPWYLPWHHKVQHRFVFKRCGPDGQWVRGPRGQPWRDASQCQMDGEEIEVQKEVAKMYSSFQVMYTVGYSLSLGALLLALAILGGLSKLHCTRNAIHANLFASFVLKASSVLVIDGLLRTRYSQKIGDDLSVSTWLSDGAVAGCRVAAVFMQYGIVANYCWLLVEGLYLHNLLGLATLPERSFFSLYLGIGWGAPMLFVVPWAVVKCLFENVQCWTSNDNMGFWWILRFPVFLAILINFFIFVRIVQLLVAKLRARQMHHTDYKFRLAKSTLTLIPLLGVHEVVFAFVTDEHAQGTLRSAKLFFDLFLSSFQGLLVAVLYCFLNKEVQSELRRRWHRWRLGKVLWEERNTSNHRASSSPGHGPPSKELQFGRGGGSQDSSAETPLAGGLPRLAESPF
T1 sequence (P43220 whole entry): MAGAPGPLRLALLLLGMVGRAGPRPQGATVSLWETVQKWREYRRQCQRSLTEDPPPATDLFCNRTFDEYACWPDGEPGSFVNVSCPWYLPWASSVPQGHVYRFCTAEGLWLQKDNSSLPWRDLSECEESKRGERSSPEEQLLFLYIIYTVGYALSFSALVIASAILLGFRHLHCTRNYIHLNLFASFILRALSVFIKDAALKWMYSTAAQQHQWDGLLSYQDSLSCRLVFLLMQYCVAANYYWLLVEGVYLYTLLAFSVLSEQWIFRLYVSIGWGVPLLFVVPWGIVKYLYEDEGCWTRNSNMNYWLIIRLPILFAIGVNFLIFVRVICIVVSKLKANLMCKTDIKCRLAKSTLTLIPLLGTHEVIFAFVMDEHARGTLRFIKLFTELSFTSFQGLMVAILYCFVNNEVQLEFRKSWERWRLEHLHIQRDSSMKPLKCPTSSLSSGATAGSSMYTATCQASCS

EC50 [1] [pM] | Activity [2] [%] | EC50 [3] [pM] | Compound | Activity ([2]; filed as agonist) [%] | EC50 ([3]; hek293) [pM]
410 | 6 | 680 | CC[C@H](C)[C@H](NC(=O)[C@H](Cc1ccccc1)NC(=O)[C@H](CC(=O)O)NC(=O)[C@H](CCC(N)=O)NC(=O)[C@H](C)NC(=O)[C@H](CCCNC(=N)N)NC(=O)[C@H](CCCNC(=N)N)NC(=O)[C@H](CO)NC(=O)[C@H](CC(=O)O)NC(=O)[C@H](CC(C)C)NC(=O)[C@H](Cc1ccc(O)cc1)NC(=O)[C@H](CCCCN)NC(=O)[C@H](CO)NC(=O)[C@@H](NC(=O)[C@H](CC(=O)O)NC(=O)[C@H](CC(N)=O)NC(=O)[C@@H](NC(=O)[C@H](Cc1ccc(O)cc1)NC(=O)[C@@H](NC(=O)CNC(=O)[C@H](CCC(N)=O)NC(=O)[C@H](CO)NC(=O)[C@@H](N)Cc1c[nH]cn1)[C@@H](C)O)[C@@H](C)O)C(C)C)C(=O)N[C@@H](CCC(=O)O)C(=O)N[C@@H](Cc1c[nH]c2ccccc12)C(=O)N[C@@H](CC(C)C)C(=O)N[C@@H](CCSC)C(=O)N[C@@H](CC(N)=O)C(=O)N[C@H](C(N)=O)C(C)O (stereo partly drawn) (H-HSQGTYTNDVSKYLDSRRAQDFIEWLMN[Thr(3ξ)]-NH2) |  | 
1300 | 29.3 | 140 | H-HSQGTYTNDVSKYLDSRRAQDFIEWLIKGK-NH2 |  | 
280 |  | 78 | H-HSQGTYTNDVSKYLDSRRAQDFIEWLIKGKRNRNNIA-NH2 | 52.6 | 
2700 | 25.6 | 160 | H-HSQGTYTNDVTEYLDSRRAQEFIEWLIKGK-NH2 |  | 
430 | 5.6 | 730 | CC[C@H](C)[C@H](NC(=O)[C@H](Cc1ccccc1)NC(=O)[C@H](CC(=O)O)NC(=O)[C@H](CCC(N)=O)NC(=O)[C@H](C)NC(=O)[C@H](CCCNC(=N)N)NC(=O)[C@H](CCCNC(=N)N)NC(=O)[C@H](CO)NC(=O)[C@H](CC(=O)O)NC(=O)[C@H](CC(C)C)NC(=O)[C@H](Cc1ccc(O)cc1)NC(=O)[C@H](CCC(N)=O)NC(=O)[C@@H](NC(=O)[C@@H](NC(=O)[C@H](CC(=O)O)NC(=O)[C@H](CC(N)=O)NC(=O)[C@@H](NC(=O)[C@H](Cc1ccc(O)cc1)NC(=O)[C@@H](NC(=O)CNC(=O)[C@H](CCC(N)=O)NC(=O)[C@H](CO)NC(=O)[C@@H](N)Cc1c[nH]cn1)[C@@H](C)O)[C@@H](C)O)C(C)C)[C@@H](C)O)C(=O)N[C@@H](CCC(=O)O)C(=O)N[C@@H](Cc1c[nH]c2ccccc12)C(=O)N[C@@H](CC(C)C)C(=O)N[C@@H](CCSC)C(=O)N[C@@H](CC(N)=O)C(=O)N[C@H](C(N)=O)C(C)O (stereo partly drawn) (H-HSQGTYTNDVTQYLDSRRAQDFIEWLMN[Thr(3ξ)]-NH2) |  | 
2600 | 34.2 | 120 | H-HSQGTYTNDVTEYLDSRRAQDFIEWLIKGK-NH2 |  | 
930 | 6.6 | 620 | H-HSQGTYTNDVTQYLDSRRAQQFIEWLMNTKRNRNNIA-NH2 |  | 
 |  |  | CCCCCCCCCCCCCCCC(=O)N[C@H](CCC(=O)NCCCC[C@H](NC(=O)[C@H](CO)NC(=O)[C@@H](NC(=O)[C@H](CC(=O)O)NC(=O)[C@H](CC(N)=O)NC(=O)[C@@H](NC(=O)[C@H](Cc1ccc(O)cc1)NC(=O)[C@@H](NC(=O)CNC(=O)[C@H](CCC(N)=O)NC(=O)[C@@H](CO)NC(=O)[C@@H](N)Cc1c[nH]cn1)[C@@H](C)O)[C@@H](C)O)C(C)C)C(=O)N[C@@H](Cc1ccc(O)cc1)C(=O)N[C@@H](CC(C)C)C(=O)N[C@@H](CC(=O)O)C(=O)N[C@@H](CO)C(=O)N[C@@H](CCCNC(=N)N)C(=O)N[C@@H](CCCNC(=N)N)C(=O)N[C@@H](C)C(=O)N[C@@H](CCC(N)=O)C(=O)N[C@@H](CC(=O)O)C(=O)N[C@@H](Cc1ccccc1)C(=O)N[C@H](C(=O)N[C@@H](CCC(=O)O)C(=O)N[C@@H](Cc1c[nH]c2ccccc12)C(=O)N[C@@H](CC(C)C)C(=O)N[C@@H](CCCCN)C(=O)N[C@@H](CC(N)=O)C(=O)NCC(=O)NCC(=O)N1CCC[C@H]1C(=O)N[C@@H](CO)C(=O)N[C@@H](CO)C(=O)NCC(=O)N[C@@H](C)C(=O)N1CCC[C@H]1C(=O)N1CCC[C@H]1C(=O)N1CCC[C@H]1C(=O)N[C@@H](CO)C(N)=O)[C@@H](C)CC)C(=O)O | 80.4 | 51
